Measured values taken from paper PMC11188199, “Development and validation of a generic methyltransferase enzymatic assay based on an SAH riboswitch” (SLAS discovery : advancing life sciences R & D, 2024).

Assays:
METTL3/METTL14 = conditions: cited from earlier work
PRMT5 [1] = test system: PRMT5; set-up: method as in PMID 25915199; conditions: read-out: IC50 (published value); cited from earlier work
SAH riboswitches = target: SAH riboswitches; set-up: method as in PMID 18374645; conditions: native SAH riboswitch; cited from earlier work
Dar-1 split aptamer = experiment: Split aptamer SAH assay with TR-FRET readout (AptaFluor), equilibrium binding; set-up: species or system D. aromatica; conditions: for EC50: n = 3, plates read at 3 hr
[2] = test system: split Dar-1 riboswitch (Dar1 P1/P2); experiment: Split aptamer SAH assay with FP readout; assay type: binding, D. aromatica
Description: Based on a literature review and preliminary testing, an SAH riboswitch from D. aromatica (Dar-1) was chosen for development of a split aptamer-based assay. […] We tested these configurations with a far red fluor on the shorter P2 element, allowing FP-based detection (Fig. 1A). […] Generally, a shift of at least 100 mP @ ≤ 10 % substrate conversion is desirable for HTS. It is likely that the FP signal is limited by the relatively modest difference in size between the free P2 RNA and the liganded P1–P2 complex. In this regard, attachment of one half of a split DNA aptamer to a silver nanoparticle produced a lactoferrin sensor with a signal greater than 100 mP [32]; to our knowledge, this is the only other example of a split aptamer-based assay with an FP readout. Attempts to use a similar approach by attaching Streptavidin to the P1 oligomer were not successful (data not shown).
Fig. 1. Split aptamer SAH assay with FP readout. A. SAH dependent assembly of split aptamer (Dar1 P1/P2) causes increase in polarization of a fluor attached to the P2 element. B. SAH titration, showing concentration dependence and stability of signal. C. Comparison of response to SAH, SAM and ATP. D. Standard curve mimicking enzymatic conversion of 200 nM SAM to SAH. E. Titration of PRMT3 in the presence of 500 nM SAM and Histone H4 peptide substrate. […]

PRMT5 [3] = target: PRMT5; set-up: method as in PMID 34583982; conditions: RapidFire MS SAH detection; read-out: kiApp; cited from earlier work
nsp14 [4] = target: T1, nsp14 (Severe acute respiratory syndrome coronavirus 2, UniProt P0DTD1)
nsp14 [5] = target: T1, nsp14; conditions: read-out: SAM Km; cited from earlier work
[6] = test system: C[S+](CC[C@H](N)C(=O)[O-])C[C@H]1O[C@@H](n2cnc3c(N)ncnc32)[C@H](O)[C@@H]1O; experiment: purified protein, by the assay type; conditions: other: data not shown

CNc1cc(N2CCC3(CC2)CN(c2cc(F)c(CN4CCC(C)(C)CC4)cc2F)CC(=O)N3)ncn1 [UZH2, reference compound]
IC50 (METTL3/METTL14; read-out: IC50 (published value)): 5 nM

O=C(NC[C@H](O)CN1CCc2ccccc2C1)c1ccnc(NC2CCC2)c1 [GSK591]
IC50 (PRMT5 [1]): 22 nM

Nc1ncnc2c1ncn2[C@@H]1O[C@H](CSCC[C@H](N)C(=O)O)[C@@H](O)[C@H]1O [SAH, S-adenosylhomocysteine]
Kd (SAH riboswitches): 20 nM
observed selectivity (SAH vs SAM) (Dar-1 split aptamer; highly purified preparation of SAM): more than 1000 fold
EC50 (Dar-1 split aptamer): 20 nM
selectivity vs. SAM [2]: greater than 200 fold
Kd ([2]; split aptamer construct): 22 nM

Nc1nc2cc(CC[C@H]3C[C@@H](n4ccc5c(N)ncnc54)[C@H](O)[C@@H]3O)ccc2cc1Br [JNJ64619178]
Ki (PRMT5 [3]): 0.772 nM

O=C1C(Cl)=C(NCCN2CCOCC2)C(=O)c2ncccc21 [NSC-663284]
inhibition of nsp14 enzymatic activity in dose response mode (nsp14 [4]): dose-dependent response

C[S+](CC[C@H](N)C(=O)[O-])C[C@H]1O[C@@H](n2cnc3c(N)ncnc32)[C@H](O)[C@@H]1O (stereo partly shown) [SAM, S-adenosylmethionine]
affinity fold lower than for SAH (SAH riboswitches): at least 1000 fold
Km (nsp14 [5]): 0.257 µM
Km (METTL3/METTL14; ssRNA substrate similar to the 28mer, read-out: SAM Km): ~0.2 µM
EC50 (Dar-1 split aptamer): 23000 nM

Nc1ncnc2c1ncn2[C@@H]1O[C@H](CO)[C@@H](O)[C@H]1O [adenosine]
EC50 (Dar-1 split aptamer): 108000 nM

CC1(C)C(=O)N=C2C1=C(O)C(=O)c1ccccc12 [BVT-948]
inhibition of nsp14 enzymatic activity in dose response mode (nsp14 [4]): dose-dependent response

nsp14 (Severe acute respiratory syndrome coronavirus 2)
Km [6]: 0.06 µM
